Reference: ChEMBL document CHEMBL1777733, “The discovery and structure-activity relationships of pyrano[3,4-b]indole-based inhibitors of hepatitis C virus NS5B polymerase” (Bioorg Med Chem Lett, 2011)

What was measured:
[1] = Inhibition of HCV BK NS5B polymerase after 15 mins; parameters: species or system Hepatitis C virus (isolate BK)
[2] = Inhibition of HCV BB7 NS5B polymerase after 15 mins; parameters: species or system Hepacivirus hominis
Hepatitis C virus [3] = test: Antiviral activity against HCV genotype 1b infected in human Huh7 cells assessed as decrease in viral NS5A levels after 3 days by ELISA; type: functional, organism-based, Hepacivirus hominis; details: Huh-7, 72 h
Hepatitis C virus [4] = test: Antiviral activity against HCV genotype 1b infected in human Huh7 cells assessed as reduction of viral RNA level after 3 days by RT-PCR method; type: functional, organism-based, Hepacivirus hominis; details: Huh-7, 72 h

Row | SMILES | IC50 [1] [nM] | IC50 [2] [nM] | EC50 (Hepatitis C virus [3]) [nM] | EC50 (Hepatitis C virus [4]) [nM]
1 | CCC[C@]1(CC(=O)O)OCCc2c1[nH]c1c(C)ccc(C#N)c21 | 300 | 400 |  | 
2 | CCCC1(CC(=O)O)OCCc2c1[nH]c1c(C)c(OCCOC)cc(C#N)c21 (racemic) | 40 | 90 | 4900 | 
3 | CCC[C@]1(CC(=O)O)OCCc2c1[nH]c1c(C)c(OCc3cc(C)on3)cc(C#N)c21 | 6 | 8 | 480 | 
4 | CCCC1(CC(=O)O)OCCc2c1[nH]c1c(C)c(OCc3cnccn3)cc(C#N)c21 (racemic) | 19 | 20 | 1600 | 
5 | CCCOc1cc(C#N)c2c3c([nH]c2c1C)C(CCC)(CC(=O)O)OCC3 (racemic) | 70 | 70 | 2900 | 
6 | CCCC1(CC(=O)O)OCCc2c1[nH]c1c(C)c(O)cc(C#N)c21 (racemic) | 260 | 200 | 47000 | 
7 | CCCC1(CC(=O)O)OCCc2c1[nH]c1c(C)c(OCc3ccccn3)cc(C#N)c21 (racemic) | 20 | 20 | 390 | 
8 | CCCC1(CC(=O)O)OCCc2c1[nH]c1c(C)c(OC(C)C)cc(C#N)c21 (racemic) | 480 | 220 | 19700 | 
9 | CCC[C@]1(CC(=O)O)OCCc2c1[nH]c1c(C)c(OC[C@@H](C)n3cccn3)cc(C#N)c21 | 7 | 7 | 340 | 
10 | CCCC1(CC(=O)O)OCCc2c1[nH]c1c(C)c(C(=O)NCCc3ccccn3)cc(C#N)c21 (racemic) | 1200 | 640 | > 100000 | 
11 | CCCC1(CC(=O)O)OCCc2c1[nH]c1c(C)c(OCCN3CCCC3)cc(C#N)c21 (racemic) | 1100 | 950 | 26000 | 
12 | CC[C@H](C)[C@]1(CC(=O)O)OCCc2c1[nH]c1c(C)c(OC[C@H](C)n3cccn3)cc(C#N)c21 | 2 | 2 |  | 20

The remaining compounds from weak to strong by IC50 [1], led by results:

Row | IC50 [1] [nM] | IC50 [2] [nM] | EC50 (Hepatitis C virus [3]) [nM] | EC50 (Hepatitis C virus [4]) [nM] | SMILES
13 | 16000 | 20000 | > 100000 |  | CCCC1(CC(=O)O)OCCc2c1[nH]c1c(C)c(C(=O)N(C)C)cc(C#N)c21 (racemic)
14 | 3000 | 2000 | > 100000 |  | CCCNC(=O)c1cc(C#N)c2c3c([nH]c2c1C)C(CCC)(CC(=O)O)OCC3 (racemic)
15 | 1300 | 970 | > 100000 |  | CCCC1(CC(=O)O)OCCc2c1[nH]c1c(C)c(C(=O)NC)cc(C#N)c21 (racemic)
16 | 980 | 670 | > 100000 |  | CCCC1(CC(=O)O)OCCc2c1[nH]c1c(C)c(C(=O)NCc3ccccc3)cc(C#N)c21 (racemic)
17 | 860 | 560 | > 100000 |  | CCCC1(CC(=O)O)OCCc2c1[nH]c1c(C)c(C(=O)NCCc3ncc[nH]3)cc(C#N)c21 (racemic)
18 | 540 | 300 | 56000 |  | CCCC1(CC(=O)O)OCCc2c1[nH]c1c(C)c(C(=O)NCc3ccc4c(c3)OCO4)cc(C#N)c21 (racemic)
19 | 360 | 130 | 20000 |  | CCCC1(CC(=O)O)OCCc2c1[nH]c1c(C)c(OC)cc(C#N)c21 (racemic)
20 | 310 | 230 | 8300 |  | CCCC1(CC(=O)O)OCCc2c1[nH]c1c(C)c(OCCc3ccncc3)cc(C#N)c21 (racemic)
21 | 110 | 70 | 3500 |  | CCCC1(CC(=O)O)OCCc2c1[nH]c1c(C)c(OCC)cc(C#N)c21 (racemic)
22 | 30 | 20 | 760 |  | CCC[C@]1(CC(=O)O)OCCc2c1[nH]c1c(C)c(OCc3cc(C)n(C)n3)cc(C#N)c21
23 | 12 | 3 |  | 20 | CC[C@H](C)[C@]1(CC(=O)O)OCCc2c1[nH]c1c(C)c(OCCn3cccn3)cc(C#N)c21
24 | 5 | 5 |  |  | CCC[C@]1(CC(=O)O)OCCc2c1[nH]c1c(C)c(OCCn3cccn3)cc(C#N)c21
25 | 3 | 3 | 120 |  | CCC[C@]1(CC(=O)O)OCCc2c1[nH]c1c(C)c(OC[C@H](C)n3cccn3)cc(C#N)c21
